Experimental data taken from a compilation of properties of binary mixtures (doi:10.1016/j.fluid.2015.05.023).

Test: xn = mol fraction of the nth substance listed
Conditions: 100 kPa

CCCCCCCCCCCn1cc[n+](C)c1.O=S(=O)([N-]S(=O)(=O)C(F)(F)F)C(F)(F)F + O
x2 = 0.1567
Conditions	viscosity [mPa·s]
298.15 K	96.4
303.15 K	75.7
308.15 K	60.46
313.15 K	49.36
318.15 K	40.26
323.15 K	33.49
328.15 K	28.17
333.15 K	24.19
343.15 K	17.77
348.15 K	15.5
353.15 K	13.94
358.15 K	12.05
363.15 K	10.72

CCCCCCCCCn1cc[n+](C)c1.O=S(=O)([N-]S(=O)(=O)C(F)(F)F)C(F)(F)F + O
x2 = 0.1736
Conditions	viscosity [mPa·s]
303.15 K	57.66
313.15 K	39.1
328.15 K	22.64
333.15 K	19.7
338.15 K	16.81
343.15 K	14.67
348.15 K	12.89
353.15 K	11.68

CCCCCCCCn1cc[n+](CCCCCCCC)c1.O=S(=O)([N-]S(=O)(=O)C(F)(F)F)C(F)(F)F + O
x2 = 0.1246
Conditions	viscosity [mPa·s]
298.15 K	120.2
313.15 K	58.75
318.15 K	47.76
323.15 K	39.33
328.15 K	32.75
333.15 K	27.56
338.15 K	23.43
343.15 K	20.09
348.15 K	17.37
353.15 K	15.13
363.15 K	11.72

CCCCCCC[n+]1ccn(C)c1.O=S(=O)([N-]S(=O)(=O)C(F)(F)F)C(F)(F)F + O
x2 = 0.1971
Conditions	viscosity [mPa·s]
298.15 K	52.98
303.15 K	42.58
313.15 K	28.95
328.15 K	17.77
333.15 K	15.4
338.15 K	13.45
343.15 K	11.85
348.15 K	10.51
353.15 K	9.36
363.15 K	7.58

CCCCCCCn1cc[n+](CCCCCCC)c1.O=S(=O)([N-]S(=O)(=O)C(F)(F)F)C(F)(F)F + O
x2 = 0.1365
Conditions	viscosity [mPa·s]
298.15 K	100.8
303.15 K	78.57
308.15 K	62.48
313.15 K	50.44
318.15 K	41.29
323.15 K	34.22
328.15 K	28.65
333.15 K	24.25
338.15 K	20.67
343.15 K	17.8
348.15 K	15.46
353.15 K	13.51
358.15 K	11.9
363.15 K	10.53

CCCCCCn1cc[n+](CCCCCC)c1.O=S(=O)([N-]S(=O)(=O)C(F)(F)F)C(F)(F)F + O
x2 = 0.1489
Conditions	viscosity [mPa·s]
298.15 K	83.49
308.15 K	52.59
313.15 K	42.72
318.15 K	35.17
323.15 K	29.31
333.15 K	21.02
338.15 K	18.06
343.15 K	15.65
348.15 K	13.67
353.15 K	12
358.15 K	10.63
363.15 K	9.466

CCCCCn1cc[n+](C)c1.O=S(=O)([N-]S(=O)(=O)C(F)(F)F)C(F)(F)F + O
x2 = 0.2211
Conditions	viscosity [mPa·s]
298.15 K	38.65
303.15 K	31.67
308.15 K	26.32
323.15 K	16.22
328.15 K	14.08
333.15 K	12.32
338.15 K	10.87
343.15 K	9.65
348.15 K	8.63
353.15 K	7.75
358.15 K	7
363.15 K	6.36

CCCCCn1cc[n+](CCCCC)c1.O=S(=O)([N-]S(=O)(=O)C(F)(F)F)C(F)(F)F + O
x2 = 0.1575
Conditions	viscosity [mPa·s]
298.15 K	66.87
303.15 K	53.1
308.15 K	42.91
318.15 K	29.21
323.15 K	24.56
328.15 K	20.86
333.15 K	17.88
343.15 K	13.46
348.15 K	11.83
353.15 K	10.46
363.15 K	8.34

CCCC[n+]1ccn(C)c1.O=S(=O)([N-]S(=O)(=O)C(F)(F)F)C(F)(F)F + O
x2 = 0.257
Conditions	viscosity [mPa·s]
298.15 K	31.31
303.15 K	25.93
308.15 K	21.78
313.15 K	18.52
318.15 K	15.92
323.15 K	13.82
328.15 K	12.1
338.15 K	9.475
348.15 K	7.629
358.15 K	6.275
363.15 K	5.73

CCCCn1cc[n+](CCCC)c1.O=S(=O)([N-]S(=O)(=O)C(F)(F)F)C(F)(F)F + O
x2 = 0.1843
Conditions	viscosity [mPa·s]
298.15 K	48.47
303.15 K	39.12
313.15 K	26.74
318.15 K	22.52
323.15 K	19.19
328.15 K	16.51
333.15 K	14.32
338.15 K	12.53
343.15 K	11.04
348.15 K	9.78
353.15 K	8.73

CCCn1cc[n+](C)c1.O=S(=O)([N-]S(=O)(=O)C(F)(F)F)C(F)(F)F + O
x2 = 0.272
Conditions	viscosity [mPa·s]
298.15 K	26.63
303.15 K	22.24
313.15 K	16.12
328.15 K	10.73
333.15 K	9.52
338.15 K	8.5
348.15 K	6.9
358.15 K	5.69
363.15 K	5.22

CCCn1cc[n+](CCC)c1.O=S(=O)([N-]S(=O)(=O)C(F)(F)F)C(F)(F)F + O
x2 = 0.2232
Conditions	viscosity [mPa·s]
298.15 K	35.66
308.15 K	24.31
318.15 K	17.47
323.15 K	15.05
328.15 K	13.09
338.15 K	10.15
343.15 K	9.03
353.15 K	7.29
358.15 K	6.6

CC[n+]1ccn(C)c1.O=S(=O)([N-]S(=O)(=O)C(F)(F)F)C(F)(F)F + O
x2 = 0.298
Conditions	viscosity [mPa·s]
298.15 K	18.97
308.15 K	14.06
318.15 K	10.83
323.15 K	9.63
328.15 K	8.615
338.15 K	7.02
343.15 K	6.382
348.15 K	5.832
353.15 K	5.35
358.15 K	4.926
363.15 K	4.549

CCn1cc[n+](CC)c1.O=S(=O)([N-]S(=O)(=O)C(F)(F)F)C(F)(F)F + O
x2 = 0.2772
Conditions	viscosity [mPa·s]
298.15 K	19.32
303.15 K	16.55
308.15 K	14.34
313.15 K	12.53
323.15 K	9.8
328.15 K	8.75
333.15 K	7.87
338.15 K	7.11
343.15 K	6.46
348.15 K	5.89
353.15 K	5.39
363.15 K	4.57

Cn1cc[n+](C)c1.O=S(=O)([N-]S(=O)(=O)C(F)(F)F)C(F)(F)F + O
x2 = 0.3548
Conditions	viscosity [mPa·s]
298.15 K	18.59
303.15 K	15.87
308.15 K	13.73
313.15 K	11.99
318.15 K	10.57
323.15 K	9.39
328.15 K	8.39
333.15 K	7.55
338.15 K	6.84
343.15 K	6.22
348.15 K	5.69
353.15 K	5.23
358.15 K	4.82
363.15 K	4.46
